{
  "source": "the supplement of paper PMC10307832",
  "test_in_all_cases": "relative viability (nuclei count vs DMSO), 5 days (fraction); higher = more cells survive",
  "key": {"SK-LU-1": {"system": "SK-LU-1", "outline": "(§1)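 Lung cancer cell lines in 1536-well plates got either a single drug or a fixed anchor-drug dose together with five library-drug doses (not always all listed) in √10 steps, by pin tool, on the day after seeding. Nuclei were counted after 5 days, and relative viability is the treated-to-vehicle ratio of nuclei counts. Values are medians of duplicate plates.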"}, "LK-2": {"system": "LK-2", "outline": "as §1"}, "RERF-LC-KJ": {"system": "RERF-LC-KJ", "outline": "as §1"}, "UMC-11": {"system": "UMC-11", "outline": "as §1"}, "HCC-366": {"system": "HCC-366", "outline": "as §1"}, "NCI-H441": {"system": "NCI-H441", "outline": "as §1"}, "NCI-H1437": {"system": "NCI-H1437", "outline": "as §1"}, "NCI-H1755": {"system": "NCI-H1755", "outline": "as §1"}, "NCI-H3122": {"system": "NCI-H3122", "outline": "as §1"}, "HOP-62": {"system": "HOP-62", "outline": "as §1"}, "NCI-H1734": {"system": "NCI-H1734", "outline": "as §1"}, "PC-3 [JPC-3]": {"system": "PC-3 [JPC-3]", "outline": "as §1"}, "COR-L23": {"system": "COR-L23", "outline": "as §1"}, "NCI-H596": {"system": "NCI-H596", "outline": "as §1"}, "NCI-H727": {"system": "NCI-H727", "outline": "as §1"}, "NCI-H1563": {"system": "NCI-H1563", "outline": "as §1"}, "CAL-12T": {"system": "CAL-12T", "outline": "as §1"}, "ABC-1": {"system": "ABC-1", "outline": "as §1"}, "NCI-H1651": {"system": "NCI-H1651", "outline": "as §1"}, "EMC-BAC-2": {"system": "EMC-BAC-2", "outline": "as §1"}, "NCI-H2347": {"system": "NCI-H2347", "outline": "as §1"}, "HARA": {"system": "HARA", "outline": "as §1"}},
  "data": [
    {"smiles": "CN1CCN(CCOc2cc(OC3CCOCC3)c3c(Nc4c(Cl)ccc5c4OCO5)ncnc3c2)CC1", "note": "[Saracatinib] + Cc1nc(NC(=O)N2CCC[C@H]2C(N)=O)sc1-c1ccnc(C(C)(C)C(F)(F)F)c1 [Alpelisib] (partner 2 µM)", "values": [
      {"measurement": "relative viability", "setting": "SK-LU-1; first compound 0.02 µM", "value": 0.634},
      {"measurement": "relative viability", "setting": "SK-LU-1; first compound 0.2 µM", "value": 0.673},
      {"measurement": "relative viability", "setting": "SK-LU-1; first compound 0.6325 µM", "value": 0.44},
      {"measurement": "relative viability", "setting": "SK-LU-1; first compound 2 µM", "value": 0.297},
      {"measurement": "relative viability", "setting": "LK-2; first compound 0.02 µM", "value": 0.956},
      {"measurement": "relative viability", "setting": "LK-2; first compound 0.2 µM", "value": 0.851},
      {"measurement": "relative viability", "setting": "LK-2; first compound 0.6325 µM", "value": 1.02},
      {"measurement": "relative viability", "setting": "LK-2; first compound 2 µM", "value": 0.531},
      {"measurement": "relative viability", "setting": "RERF-LC-KJ; first compound 0.02 µM", "value": 0.894},
      {"measurement": "relative viability", "setting": "RERF-LC-KJ; first compound 0.2 µM", "value": 0.954},
      {"measurement": "relative viability", "setting": "RERF-LC-KJ; first compound 0.6325 µM", "value": 0.831},
      {"measurement": "relative viability", "setting": "RERF-LC-KJ; first compound 2 µM", "value": 0.662},
      {"measurement": "relative viability", "setting": "UMC-11; first compound 0.02 µM", "value": 0.99},
      {"measurement": "relative viability", "setting": "UMC-11; first compound 0.6325 µM", "value": 1.03},
      {"measurement": "relative viability", "setting": "UMC-11; first compound 2 µM", "value": 0.768},
      {"measurement": "relative viability", "setting": "HCC-366; first compound 0.02 µM", "value": 0.429},
      {"measurement": "relative viability", "setting": "HCC-366; first compound 0.6325 µM", "value": 0.272},
      {"measurement": "relative viability", "setting": "HCC-366; first compound 2 µM", "value": 0.152},
      {"measurement": "relative viability", "setting": "NCI-H441; first compound 0.02 µM", "value": 0.715},
      {"measurement": "relative viability", "setting": "NCI-H441; first compound 0.2 µM", "value": 0.544},
      {"measurement": "relative viability", "setting": "NCI-H441; first compound 0.6325 µM", "value": 1.03},
      {"measurement": "relative viability", "setting": "NCI-H441; first compound 2 µM", "value": 0.772},
      {"measurement": "relative viability", "setting": "NCI-H1437; first compound 0.02 µM", "value": 0.987},
      {"measurement": "relative viability", "setting": "NCI-H1437; first compound 0.2 µM", "value": 0.894},
      {"measurement": "relative viability", "setting": "NCI-H1437; first compound 0.6325 µM", "value": 0.845},
      {"measurement": "relative viability", "setting": "NCI-H1437; first compound 2 µM", "value": 0.895},
      {"measurement": "relative viability", "setting": "NCI-H1755; first compound 0.02 µM", "value": 0.928},
      {"measurement": "relative viability", "setting": "NCI-H1755; first compound 0.2 µM", "value": 0.709},
      {"measurement": "relative viability", "setting": "NCI-H1755; first compound 0.6325 µM", "value": 0.864},
      {"measurement": "relative viability", "setting": "NCI-H1755; first compound 2 µM", "value": 0.712},
      {"measurement": "relative viability", "setting": "NCI-H3122; first compound 0.02 µM", "value": 0.822},
      {"measurement": "relative viability", "setting": "NCI-H3122; first compound 0.6325 µM", "value": 0.664},
      {"measurement": "relative viability", "setting": "NCI-H3122; first compound 2 µM", "value": 0.46},
      {"measurement": "relative viability", "setting": "HOP-62; first compound 0.02 µM", "value": 0.989},
      {"measurement": "relative viability", "setting": "HOP-62; first compound 0.2 µM", "value": 0.782},
      {"measurement": "relative viability", "setting": "HOP-62; first compound 0.6325 µM", "value": 0.801},
      {"measurement": "relative viability", "setting": "HOP-62; first compound 2 µM", "value": 0.749},
      {"measurement": "relative viability", "setting": "NCI-H1734; first compound 0.02 µM", "value": 0.669},
      {"measurement": "relative viability", "setting": "NCI-H1734; first compound 0.6325 µM", "value": 0.646},
      {"measurement": "relative viability", "setting": "NCI-H1734; first compound 2 µM", "value": 0.507},
      {"measurement": "relative viability", "setting": "PC-3 [JPC-3]; first compound 0.02 µM", "value": 0.998},
      {"measurement": "relative viability", "setting": "PC-3 [JPC-3]; first compound 0.2 µM", "value": 0.956},
      {"measurement": "relative viability", "setting": "PC-3 [JPC-3]; first compound 0.6325 µM", "value": 0.876},
      {"measurement": "relative viability", "setting": "PC-3 [JPC-3]; first compound 2 µM", "value": 0.53},
      {"measurement": "relative viability", "setting": "COR-L23; first compound 0.02 µM", "value": 0.755},
      {"measurement": "relative viability", "setting": "COR-L23; first compound 0.2 µM", "value": 0.621},
      {"measurement": "relative viability", "setting": "COR-L23; first compound 0.6325 µM", "value": 0.591},
      {"measurement": "relative viability", "setting": "COR-L23; first compound 2 µM", "value": 0.603},
      {"measurement": "relative viability", "setting": "NCI-H596; first compound 0.02 µM", "value": 0.459},
      {"measurement": "relative viability", "setting": "NCI-H596; first compound 0.2 µM", "value": 0.424},
      {"measurement": "relative viability", "setting": "NCI-H596; first compound 0.6325 µM", "value": 0.448},
      {"measurement": "relative viability", "setting": "NCI-H596; first compound 2 µM", "value": 0.403},
      {"measurement": "relative viability", "setting": "NCI-H727; first compound 0.02 µM", "value": 0.558},
      {"measurement": "relative viability", "setting": "NCI-H727; first compound 0.2 µM", "value": 0.461},
      {"measurement": "relative viability", "setting": "NCI-H727; first compound 0.6325 µM", "value": 0.334},
      {"measurement": "relative viability", "setting": "NCI-H727; first compound 2 µM", "value": 0.308},
      {"measurement": "relative viability", "setting": "NCI-H1563; first compound 0.02 µM", "value": 0.992},
      {"measurement": "relative viability", "setting": "NCI-H1563; first compound 0.2 µM", "value": 0.882},
      {"measurement": "relative viability", "setting": "NCI-H1563; first compound 0.6325 µM", "value": 0.725},
      {"measurement": "relative viability", "setting": "NCI-H1563; first compound 2 µM", "value": 0.693},
      {"measurement": "relative viability", "setting": "CAL-12T; first compound 0.02 µM", "value": 1.28},
      {"measurement": "relative viability", "setting": "CAL-12T; first compound 0.2 µM", "value": 1.06},
      {"measurement": "relative viability", "setting": "CAL-12T; first compound 0.6325 µM", "value": 1.33},
      {"measurement": "relative viability", "setting": "CAL-12T; first compound 2 µM", "value": 0.927},
      {"measurement": "relative viability", "setting": "ABC-1; first compound 0.02 µM", "value": 0.854},
      {"measurement": "relative viability", "setting": "ABC-1; first compound 0.2 µM", "value": 1.06},
      {"measurement": "relative viability", "setting": "ABC-1; first compound 0.6325 µM", "value": 0.981},
      {"measurement": "relative viability", "setting": "ABC-1; first compound 2 µM", "value": 0.857},
      {"measurement": "relative viability", "setting": "NCI-H1651; first compound 0.02 µM", "value": 1.02},
      {"measurement": "relative viability", "setting": "NCI-H1651; first compound 0.2 µM", "value": 0.729},
      {"measurement": "relative viability", "setting": "NCI-H1651; first compound 0.6325 µM", "value": 0.913},
      {"measurement": "relative viability", "setting": "NCI-H1651; first compound 2 µM", "value": 0.804},
      {"measurement": "relative viability", "setting": "EMC-BAC-2; first compound 0.02 µM", "value": 0.778},
      {"measurement": "relative viability", "setting": "EMC-BAC-2; first compound 0.2 µM", "value": 0.657},
      {"measurement": "relative viability", "setting": "EMC-BAC-2; first compound 0.6325 µM", "value": 0.697},
      {"measurement": "relative viability", "setting": "EMC-BAC-2; first compound 2 µM", "value": 0.578},
      {"measurement": "relative viability", "setting": "NCI-H2347; first compound 0.02 µM", "value": 1.03},
      {"measurement": "relative viability", "setting": "NCI-H2347; first compound 0.2 µM", "value": 0.835},
      {"measurement": "relative viability", "setting": "NCI-H2347; first compound 0.6325 µM", "value": 1.12},
      {"measurement": "relative viability", "setting": "NCI-H2347; first compound 2 µM", "value": 0.902},
      {"measurement": "relative viability", "setting": "HARA; first compound 0.02 µM", "value": 0.904},
      {"measurement": "relative viability", "setting": "HARA; first compound 0.6325 µM", "value": 0.707},
      {"measurement": "relative viability", "setting": "HARA; first compound 2 µM", "value": 0.513}
    ]}
  ]
}
